This passage reports inhibition, IC50 and EC50 results from ChEMBL document CHEMBL1147720, “Discovery and initial SAR of inhibitors of interleukin-1 receptor-associated kinase-4” (Bioorg Med Chem Lett, 2006).

Sequence of Interleukin-1 receptor-associated kinase 1 (P51617 whole entry): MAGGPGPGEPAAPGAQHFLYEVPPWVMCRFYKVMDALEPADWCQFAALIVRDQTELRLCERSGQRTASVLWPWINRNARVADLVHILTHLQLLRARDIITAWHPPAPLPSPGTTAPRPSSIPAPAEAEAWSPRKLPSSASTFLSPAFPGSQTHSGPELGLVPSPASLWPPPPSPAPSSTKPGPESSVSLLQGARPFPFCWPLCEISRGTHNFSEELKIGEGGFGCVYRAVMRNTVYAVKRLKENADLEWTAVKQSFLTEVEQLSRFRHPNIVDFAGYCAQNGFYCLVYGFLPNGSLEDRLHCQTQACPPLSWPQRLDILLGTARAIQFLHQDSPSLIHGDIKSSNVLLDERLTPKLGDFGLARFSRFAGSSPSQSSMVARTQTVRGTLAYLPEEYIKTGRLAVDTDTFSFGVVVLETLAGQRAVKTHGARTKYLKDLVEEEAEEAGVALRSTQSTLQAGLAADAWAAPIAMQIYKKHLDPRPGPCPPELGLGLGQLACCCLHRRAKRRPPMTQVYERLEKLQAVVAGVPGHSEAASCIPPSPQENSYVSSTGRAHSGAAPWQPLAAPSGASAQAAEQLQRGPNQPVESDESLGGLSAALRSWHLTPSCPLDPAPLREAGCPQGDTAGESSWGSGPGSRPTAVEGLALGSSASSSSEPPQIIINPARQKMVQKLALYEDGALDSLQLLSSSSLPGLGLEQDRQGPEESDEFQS

For the first assay, the target named is T1, Interleukin-1 receptor-associated kinase 4 (Homo sapiens) (UniProt Q9NWZ3).
T1 sequence (whole entry): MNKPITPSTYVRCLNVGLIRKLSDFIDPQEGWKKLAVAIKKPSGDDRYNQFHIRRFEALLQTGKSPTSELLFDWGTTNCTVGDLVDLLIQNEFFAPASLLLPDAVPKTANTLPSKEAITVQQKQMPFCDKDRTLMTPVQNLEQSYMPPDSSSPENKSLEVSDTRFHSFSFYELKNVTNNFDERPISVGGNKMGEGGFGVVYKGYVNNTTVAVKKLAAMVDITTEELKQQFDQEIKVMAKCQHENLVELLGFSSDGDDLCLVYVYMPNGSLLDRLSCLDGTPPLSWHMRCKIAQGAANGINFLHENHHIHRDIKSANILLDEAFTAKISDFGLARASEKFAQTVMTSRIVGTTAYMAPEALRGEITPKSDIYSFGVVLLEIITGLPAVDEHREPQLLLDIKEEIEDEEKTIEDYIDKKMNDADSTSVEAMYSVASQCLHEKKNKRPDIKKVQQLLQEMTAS
Nature of the assay: Inhibition of IRAK4 at 30 uM.
Settings: not given
In turn, `O=C(Nc1nc2cc([N+](=O)[O-])ccc2[nH]1)c1cccc([N+](=O)[O-])c1` had an inhibition of 29%.
Consider `O=[N+]([O-])c1cccc(S(=O)(=O)Nc2nc3ccccc3[nH]2)c1`, for which the inhibition turned out to be 45%.
With `O=C(Nc1nc2ccccc2s1)c1cccc([N+](=O)[O-])c1`, the inhibition was 11%.
In turn, `CCCCn1c(NC(=O)c2ccc([N+](=O)[O-])cc2)nc2ccccc21` yielded an inhibition of 8%.
Turning to `O=C(Nc1cccc([N+](=O)[O-])c1)Nc1nc2ccccc2[nH]1`, the inhibition came out at 15%.
Regarding `O=C(Nc1nc2cc(Cl)c(Cl)cc2[nH]1)c1cccc([N+](=O)[O-])c1`, the inhibition worked out at 10%.
Compound `O=C(Nc1nc2ccccc2[nH]1)c1ccccc1` gave an inhibition of 11%.
Compound `O=C(Nc1nc2c([N+](=O)[O-])cccc2[nH]1)c1cccc([N+](=O)[O-])c1` yielded an inhibition of 25%.
Regarding `O=C(O)Cn1c(NC(=O)c2cccc([N+](=O)[O-])c2)nc2ccccc21`, the inhibition turned out to be 38%.
On to `O=[N+]([O-])c1cccc(CNc2nc3ccccc3[nH]2)c1`, for which the inhibition amounted to 8%.
Compound `O=C(Nc1nc2c(F)c(F)ccc2[nH]1)c1cccc([N+](=O)[O-])c1` displayed an inhibition of 24%.
The compound `O=C(Nc1nc2ccc[nH]c-2n1)c1cccc([N+](=O)[O-])c1` returned an inhibition of 39%.

In the next assay the target is T2, Interleukin-1 receptor-associated kinase 4 (Homo sapiens, UniProt Q9NWZ3).
T2 sequence (Q9NWZ3 whole entry): T1 sequence (whole entry)
Description: Inhibition of IRAK4.
Settings: not given
On to `COc1ccc2nc(NC(=O)c3cccc([N+](=O)[O-])c3)[nH]c2c1`, for which 1.5 µM corresponded to half-maximal inhibition (IC50).
Turning to `CCCCn1c(NC(=O)c2ccc(Cl)c(Cl)c2)nc2ccccc21`, the IC50 was 3 µM.
In turn, `CCCCn1c(NC(=O)c2ccc(OC)cc2)nc2ccccc21` gave an IC50 of 6.5 µM.
Compound `CCN(CC)CCn1c(NC(=O)c2cccc([N+](=O)[O-])c2)nc2ccccc21` returned a half-maximal inhibitory concentration (IC50) of 3 µM. Compared with the last compound, the IC50 is about 2.2-fold lower.
In turn, `O=C(Nc1nc2cc(F)c(F)cc2[nH]1)c1cccc([N+](=O)[O-])c1` displayed an IC50 of 30 µM. This IC50 is about 10-fold higher than that of the compound before.
Compound `O=C(Nc1nc2ccccc2n1CCO)c1cccc([N+](=O)[O-])c1` came in with an IC50 of 0.4 µM.
`CCOC(=O)Cn1c(NC(=O)c2cccc([N+](=O)[O-])c2)nc2ccccc21` came in with an IC50 of 0.4 µM.
In the case of `COCCn1c(NC(=O)c2cccc([N+](=O)[O-])c2)nc2ccccc21`, the IC50 came to 1 µM.
The compound `O=C(Nc1nc2ccccc2[nH]1)c1ccc(F)c([N+](=O)[O-])c1` gave an IC50 of 6.5 µM.
On to `COC(=O)c1ccc2[nH]c(NC(=O)c3cccc([N+](=O)[O-])c3)nc2c1`, for which the IC50 worked out at 25 µM.
Compound `O=C(Nc1nc2ccccc2n1CCN1CCOCC1)c1cccc([N+](=O)[O-])c1` yielded an IC50 of 0.2 µM. Compared with the last compound, the IC50 is about 120-fold lower.
On to `C=CCN(C(=O)c1cccc([N+](=O)[O-])c1)c1nc2ccccc2n1CC=C`, for which the IC50 was above 30 µM.
As to `Cc1ccc(C(=O)Nc2nc3ccccc3[nH]2)cc1[N+](=O)[O-]`, the IC50 worked out at 12 µM.
The compound `O=C(Nc1nc2ccccc2[nH]1)c1cccc([N+](=O)[O-])c1` gave an IC50 of 4 µM.
Compound `C=CCn1c(NC(=O)c2cccc([N+](=O)[O-])c2)nc2ccccc21` returned an IC50 of 1 µM. This IC50 is about 4-fold lower than that of the compound before.
In the case of `O=C(Nc1nc2ccc(F)cc2[nH]1)c1cccc([N+](=O)[O-])c1`, the IC50 amounted to 4.5 µM.
In the case of `CCCCn1c(NC(=O)c2cccc(Cl)c2)nc2ccccc21`, the IC50 was determined as 30 µM.
`N#Cc1cccc(C(=O)Nc2nc3ccccc3[nH]2)c1`: inhibition was half-maximal at 13.6 µM (IC50).
In turn, `O=C(Nc1nc2ccc(Cl)cc2[nH]1)c1cccc([N+](=O)[O-])c1` registered an IC50 of 6 µM.
In the case of `CCOCCn1c(NC(=O)c2cccc([N+](=O)[O-])c2)nc2ccccc21`, 2 µM corresponded to half-maximal inhibition (IC50). This IC50 is about 3-fold lower than that of the compound before.
On to `CN(C(=O)c1cccc([N+](=O)[O-])c1)c1nc2ccccc2n1C1CCOC1=O` (stereo unspecified), for which the IC50 is above 30 µM.
In turn, `CCn1c(NC(=O)c2cccc([N+](=O)[O-])c2)nc2ccccc21` had a half-inhibitory concentration (IC50) of 2 µM.
Same read-out and setting: the same measure for `O=C(Nc1nc2cc[nH]cc-2n1)c1cccc([N+](=O)[O-])c1`: 30 µM; for `CN(C)CCCn1c(NC(=O)c2cccc([N+](=O)[O-])c2)nc2ccccc21`: 4 µM; for `Cc1ccc2nc(NC(=O)c3cccc([N+](=O)[O-])c3)[nH]c2c1`: 0.8 µM.
Compound `CCCS(=O)(=O)c1ccc2[nH]c(NC(=O)c3cccc([N+](=O)[O-])c3)nc2c1` registered an IC50 of 4 µM.
`CC(C)n1c(NC(=O)c2cccc([N+](=O)[O-])c2)nc2ccccc21` came in with a half-inhibitory concentration (IC50) of 1 µM.
As for `O=C(Nc1nc2ccccc2n1C1CCOC1=O)c1cccc([N+](=O)[O-])c1` (stereo unspecified), half-maximal inhibition (IC50) was put at 0.55 µM.
`CCOC(=O)CCn1c(NC(=O)c2cccc([N+](=O)[O-])c2)nc2ccccc21` returned an IC50 of 1 µM.
`CCCCn1c(NC(=O)c2cccc([N+](=O)[O-])c2)nc2ccccc21` yielded an IC50 of 2 µM.
In turn, `O=C(Nc1nc2ccccc2n1CC1CCCO1)c1cccc([N+](=O)[O-])c1` (stereo unspecified) showed an IC50 of 0.5 µM.
Take `O=C(Nc1nc2ccccc2n1CCC1CCC1)c1cccc([N+](=O)[O-])c1`: the IC50 was 2 µM.
Still for that read-out and setting: the same measure for `Cc1cc2nc(NC(=O)c3cccc([N+](=O)[O-])c3)[nH]c2cc1C`: 8 µM; for `CCCCCn1c(NC(=O)c2cccc([N+](=O)[O-])c2)nc2ccccc21`: 20 µM; for `O=C(O)CCn1c(NC(=O)c2cccc([N+](=O)[O-])c2)nc2ccccc21`: 4 µM.

The subject of another assay is HeLa. Description: Antiproliferative activity against human HeLa cell line after 72 hrs. In kind it is functional. The following applies: read-out: ED50 (the source's name).
As for `CCOC(=O)Cn1c(NC(=O)c2cccc([N+](=O)[O-])c2)nc2ccccc21`, the EC50 is above 30 µM.
On the same count and under the same terms, the same measure for `O=C(Nc1nc2ccccc2n1CCN1CCOCC1)c1cccc([N+](=O)[O-])c1`: above 30 µM.

A further assay concerns the target Interleukin-1 receptor-associated kinase 1 (Homo sapiens, UniProt P51617). Description: Inhibition of IRAK1.
Settings: not given
In turn, `CCOC(=O)Cn1c(NC(=O)c2cccc([N+](=O)[O-])c2)nc2ccccc21` came in with an IC50 of 0.75 µM.
With `O=C(Nc1nc2ccccc2n1CCN1CCOCC1)c1cccc([N+](=O)[O-])c1`, 0.3 µM corresponded to half-maximal inhibition (IC50).

The term inhibition denotes the change of the read-out against control, counted positive when it falls. Low readings indicate a weak effect, high ones a strong effect. For orientation: IC50 means the concentration needed to halve the response being measured. A lower IC50 goes with greater potency in that assay.
